Reference: ChEMBL document CHEMBL2439992, “Fused 3-Hydroxy-3-trifluoromethylpyrazoles Inhibit Mutant Huntingtin Toxicity” (ACS Med Chem Lett, 2013)
Converted amounts (≈) assume the structure as drawn. The source made the active and inactive calls. The rule behind the calls is not given here.

What was measured:
[1] = Kinetic solubility of the compound at pH 7.4; format: physicochemical; settings: buffer, read-out: Kinetic_solubility
[2] = Stability of the compound at pH 3 to 7.4 assessed as dehydration; format: physicochemical; settings: buffer
[3] = system: HEK293; assay: Inhibition of full-length huntingtin Q138 mutant (unknown origin) expressed in human T-RexTM-293 cells co-expressing CRE-Luc assessed as decrease of CREB-mediated transcription after 72 hrs by luciferase reporter gene based luminescence assay relative to control; format: cell-based
[4] = Inhibition of full-length huntingtin Q138 mutant (unknown origin) expressed in human T-RexTM-293 cells co-expressing CRE-Luc assessed as decrease of CREB-mediated transcription after 72 hrs by luciferase reporter gene based luminescence assay; format: cell-based; settings: HEK293, 72 h
[5] = system: MDCK; assay: Efflux ratio of permeability […] in MDCK cells expressing MDR1 after 120 mins; format: ADME, cell-based, Canis lupus familiaris; settings: dog, 2 h
[6] = Permeability of the compound from apical to basolateral side of MDCK cells expressing MDR1 after 120 mins; format: ADME, cell-based, Canis lupus familiaris; settings: dog, read-out: permeability
[7] = Intrinsic clearance in mouse liver microsomes at 1 uM in presence of NADPH; format: ADME, Microsome; settings: read-out: CLH
[8] = Intrinsic clearance in human liver microsomes at 1 uM in presence of NADPH; format: ADME, Microsome; settings: read-out: CLH
[9] = Cytotoxicity in Sprague-Dawley rat striatal neurons; format: cell-based; settings: neuron
[10] = molecular target: Huntingtin (Rattus norvegicus) (UniProt P51111); assay: Inhibition of wild type huntingtin 171-18Q-mediated cell death in Sprague-Dawley rat striatal neurons at 1 to 30 uM by NeuN-positive cell counting assay
[11] = species on record: Rattus norvegicus; assay: Inhibition of huntingtin 171-82Q mutant-mediated cell death in Sprague-Dawley rat striatal neurons at 10 to 30 uM by NeuN-positive cell counting assay
[12] = system: Mus musculus; assay: Ex vivo antihuntington's disease activity in R6/2 transgenic mouse assessed as decrease of cerebral ventricles size at 3 to 30 mg/kg, po qd measured after 8 weeks by MRI analysis; format: functional, organism-based
[13] = system: Mus musculus; assay: Antihuntington's disease activity in R6/2 transgenic mouse assessed as decrease of cerebral ventricles size at 3 to 30 mg/kg, po qd measured after 8 weeks; format: functional, organism-based
[14] = system: Mus musculus; assay: Antihuntington's disease activity in R6/2 transgenic mouse assessed as prevention of ventricular volume enlargment at 3 to 30 mg/kg, po qd measured after 8 weeks; format: functional, organism-based
[15] = system: Mus musculus; assay: Toxicity in R6/2 transgenic mouse assessed as mortality at 1 to 30 mg/kg, po qd; format: organism-based; parameters: dose 1-30 mg/kg, route oral; settings: in vivo
[16] = system: Mus musculus; assay: Toxicity in R6/2 transgenic mouse assessed as motor impairment at 1 to 30 mg/kg, po qd; format: organism-based; parameters: dose 1-30 mg/kg, route oral; settings: in vivo
[17] = system: Salmonella typhimurium; assay: Genotoxicity in Salmonella typhimurium by Ames test; format: toxicity, organism-based; settings: salmonella enterica subsp. enterica serovar typhimurium
[18] = system: Mus musculus; assay: Antihuntington's disease activity in R6/2 transgenic mouse assessed as decrease in body weight at 10 to 30 mg/kg, po qd; format: functional, organism-based
[19] = molecular target: Cytochrome P450 2C9 (Homo sapiens, UniProt P11712); assay: Inhibition of CYP2C9 (unknown origin); format: ADME
[20] = molecular target: Cytochrome P450 2C19 (Homo sapiens, UniProt P33261); assay: Inhibition of CYP2C19 (unknown origin); format: ADME
[21] = molecular target: T1, Cytochrome P450 1A2 (Homo sapiens, UniProt P05177); assay: Inhibition of CYP1A2 (unknown origin); format: ADME
T1 sequence (P05177 whole entry): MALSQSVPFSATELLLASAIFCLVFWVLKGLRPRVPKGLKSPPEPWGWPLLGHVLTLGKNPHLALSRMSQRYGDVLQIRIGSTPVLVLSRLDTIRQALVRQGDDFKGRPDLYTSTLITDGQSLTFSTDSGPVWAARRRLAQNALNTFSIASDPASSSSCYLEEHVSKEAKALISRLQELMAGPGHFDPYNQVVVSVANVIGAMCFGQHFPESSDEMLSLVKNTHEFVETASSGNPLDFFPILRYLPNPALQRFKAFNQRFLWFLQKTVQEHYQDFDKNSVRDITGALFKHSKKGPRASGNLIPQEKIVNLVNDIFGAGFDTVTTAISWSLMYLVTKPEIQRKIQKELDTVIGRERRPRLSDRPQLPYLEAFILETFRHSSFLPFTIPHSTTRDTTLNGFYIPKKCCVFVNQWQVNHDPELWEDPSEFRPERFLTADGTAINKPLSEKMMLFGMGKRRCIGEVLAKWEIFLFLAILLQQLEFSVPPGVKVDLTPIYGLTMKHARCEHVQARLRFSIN

[22] = molecular target: Cytochrome P450 2D6 (Homo sapiens, UniProt P10635); assay: Inhibition of CYP2D6 (unknown origin); format: ADME
[23] = molecular target: T2, Cytochrome P450 3A4 (Homo sapiens, UniProt P08684); assay: Inhibition of CYP3A4 (unknown origin) using nifedipine as substrate; format: ADME
[24] = molecular target: Voltage-gated inwardly rectifying potassium channel KCNH2 (Homo sapiens, UniProt Q12809); assay: Inhibition of human ERG up to 100 uM
[25] = molecular target: T2, Cytochrome P450 3A4; assay: Inhibition of CYP3A4 (unknown origin) using testosterone as substrate; format: ADME
[26] = Ratio of drug level in brain to plasma in CD1 mouse at 5 mg/kg, po and iv; format: ADME, organism-based; parameters: dose 5 mg/kg, route oral; settings: read-out: BPR
[27] = system: PC-12; assay: Cytoprotective activity in rat PC12 cells after 72 hrs by LDH release assay; format: ADME, cell-based; settings: pc-12, 72 h
[28] = system: PC-12; assay: Inhibition of GFP tagged-exon-1 fragment of huntingtin 74Q mutant (unknown origin) expressed in rat PC12 cells assessed as protection against doxycycline-induced cell death after 72 hrs by LDH release assay; format: cell-based; settings: Homo sapiens
[29] = system: HEK293; assay: Inhibition of full-length huntingtin Q138 mutant (unknown origin) expressed in human T-RexTM-293 cells co-expressing CRE-Luc assessed as decrease of CREB-mediated transcription up to 50 uM after 72 hrs by luciferase reporter gene based luminescence assay; format: cell-based

Huntingtin (Rattus norvegicus), sequence (P51111 whole entry): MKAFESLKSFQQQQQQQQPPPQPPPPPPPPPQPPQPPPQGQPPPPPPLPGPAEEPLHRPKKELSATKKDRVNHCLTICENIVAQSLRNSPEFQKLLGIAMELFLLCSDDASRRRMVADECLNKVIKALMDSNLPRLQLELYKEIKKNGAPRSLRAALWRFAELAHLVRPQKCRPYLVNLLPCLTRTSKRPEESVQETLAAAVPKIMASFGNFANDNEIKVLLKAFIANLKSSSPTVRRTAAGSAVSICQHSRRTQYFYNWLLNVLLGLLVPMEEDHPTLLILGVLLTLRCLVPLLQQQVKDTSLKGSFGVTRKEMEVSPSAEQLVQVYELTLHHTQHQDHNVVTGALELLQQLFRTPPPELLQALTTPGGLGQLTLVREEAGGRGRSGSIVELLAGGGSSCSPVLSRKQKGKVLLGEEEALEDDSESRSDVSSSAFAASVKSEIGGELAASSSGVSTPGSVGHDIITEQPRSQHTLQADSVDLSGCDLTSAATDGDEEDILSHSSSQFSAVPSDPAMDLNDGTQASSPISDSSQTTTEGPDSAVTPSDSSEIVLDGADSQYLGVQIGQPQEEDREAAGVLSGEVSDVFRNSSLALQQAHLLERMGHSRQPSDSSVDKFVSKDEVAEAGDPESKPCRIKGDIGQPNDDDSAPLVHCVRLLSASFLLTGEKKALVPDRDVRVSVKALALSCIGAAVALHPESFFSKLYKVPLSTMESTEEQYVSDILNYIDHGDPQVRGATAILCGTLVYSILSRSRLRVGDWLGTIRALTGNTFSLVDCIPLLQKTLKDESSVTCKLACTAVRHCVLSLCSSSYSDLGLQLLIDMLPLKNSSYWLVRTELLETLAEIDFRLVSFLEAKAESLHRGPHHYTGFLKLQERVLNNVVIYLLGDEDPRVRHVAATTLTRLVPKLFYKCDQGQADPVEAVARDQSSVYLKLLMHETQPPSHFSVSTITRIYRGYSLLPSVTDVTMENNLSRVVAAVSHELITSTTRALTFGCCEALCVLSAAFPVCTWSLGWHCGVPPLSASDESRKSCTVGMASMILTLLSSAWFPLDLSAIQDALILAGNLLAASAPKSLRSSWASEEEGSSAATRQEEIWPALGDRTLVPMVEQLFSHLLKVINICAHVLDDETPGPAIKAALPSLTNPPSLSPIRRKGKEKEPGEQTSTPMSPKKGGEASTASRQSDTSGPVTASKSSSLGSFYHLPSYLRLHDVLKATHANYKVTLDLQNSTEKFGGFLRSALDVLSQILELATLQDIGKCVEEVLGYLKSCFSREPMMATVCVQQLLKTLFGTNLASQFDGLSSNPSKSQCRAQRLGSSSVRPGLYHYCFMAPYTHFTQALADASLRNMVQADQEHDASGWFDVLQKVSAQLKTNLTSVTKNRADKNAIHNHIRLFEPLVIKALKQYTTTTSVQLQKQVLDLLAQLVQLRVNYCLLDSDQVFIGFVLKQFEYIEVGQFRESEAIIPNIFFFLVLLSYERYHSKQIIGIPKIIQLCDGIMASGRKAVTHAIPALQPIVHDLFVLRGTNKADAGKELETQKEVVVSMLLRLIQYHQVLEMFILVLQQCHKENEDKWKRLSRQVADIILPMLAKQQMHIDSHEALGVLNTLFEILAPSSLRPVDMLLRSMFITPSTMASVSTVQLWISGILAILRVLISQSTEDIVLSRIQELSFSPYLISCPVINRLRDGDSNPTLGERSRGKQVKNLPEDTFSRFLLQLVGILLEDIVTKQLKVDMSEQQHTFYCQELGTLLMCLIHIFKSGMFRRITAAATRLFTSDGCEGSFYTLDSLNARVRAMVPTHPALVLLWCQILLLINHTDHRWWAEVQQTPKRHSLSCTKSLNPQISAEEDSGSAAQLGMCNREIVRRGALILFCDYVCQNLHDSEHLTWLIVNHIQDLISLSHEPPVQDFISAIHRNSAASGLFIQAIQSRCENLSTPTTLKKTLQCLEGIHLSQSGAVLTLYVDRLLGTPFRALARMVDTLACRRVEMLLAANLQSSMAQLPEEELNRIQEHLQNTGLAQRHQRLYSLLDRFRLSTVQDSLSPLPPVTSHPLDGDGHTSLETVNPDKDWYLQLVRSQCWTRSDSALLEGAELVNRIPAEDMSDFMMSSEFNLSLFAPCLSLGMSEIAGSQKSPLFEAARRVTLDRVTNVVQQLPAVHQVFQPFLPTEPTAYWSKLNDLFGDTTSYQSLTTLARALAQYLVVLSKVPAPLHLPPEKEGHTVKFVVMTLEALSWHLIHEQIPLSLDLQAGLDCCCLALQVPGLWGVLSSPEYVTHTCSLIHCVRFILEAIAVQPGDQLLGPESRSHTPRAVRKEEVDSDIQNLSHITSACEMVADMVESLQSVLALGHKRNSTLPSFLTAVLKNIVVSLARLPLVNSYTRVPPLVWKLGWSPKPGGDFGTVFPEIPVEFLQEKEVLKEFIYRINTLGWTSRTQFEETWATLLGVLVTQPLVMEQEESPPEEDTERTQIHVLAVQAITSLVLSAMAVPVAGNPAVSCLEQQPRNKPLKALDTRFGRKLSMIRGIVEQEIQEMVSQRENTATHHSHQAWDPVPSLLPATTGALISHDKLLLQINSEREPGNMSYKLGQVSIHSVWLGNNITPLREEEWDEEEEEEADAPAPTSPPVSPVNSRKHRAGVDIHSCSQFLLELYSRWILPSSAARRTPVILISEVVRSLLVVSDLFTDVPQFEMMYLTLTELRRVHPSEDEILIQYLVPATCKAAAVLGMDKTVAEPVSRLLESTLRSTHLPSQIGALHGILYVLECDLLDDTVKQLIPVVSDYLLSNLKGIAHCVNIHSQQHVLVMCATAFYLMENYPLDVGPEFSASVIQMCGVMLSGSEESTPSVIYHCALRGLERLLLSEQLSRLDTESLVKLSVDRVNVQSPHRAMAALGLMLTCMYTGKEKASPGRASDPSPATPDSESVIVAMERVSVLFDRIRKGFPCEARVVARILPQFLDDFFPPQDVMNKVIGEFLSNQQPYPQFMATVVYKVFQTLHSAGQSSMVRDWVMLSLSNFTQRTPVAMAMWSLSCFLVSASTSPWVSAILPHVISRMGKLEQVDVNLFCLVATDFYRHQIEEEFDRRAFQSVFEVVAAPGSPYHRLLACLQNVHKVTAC
T2 sequence (P08684 whole entry): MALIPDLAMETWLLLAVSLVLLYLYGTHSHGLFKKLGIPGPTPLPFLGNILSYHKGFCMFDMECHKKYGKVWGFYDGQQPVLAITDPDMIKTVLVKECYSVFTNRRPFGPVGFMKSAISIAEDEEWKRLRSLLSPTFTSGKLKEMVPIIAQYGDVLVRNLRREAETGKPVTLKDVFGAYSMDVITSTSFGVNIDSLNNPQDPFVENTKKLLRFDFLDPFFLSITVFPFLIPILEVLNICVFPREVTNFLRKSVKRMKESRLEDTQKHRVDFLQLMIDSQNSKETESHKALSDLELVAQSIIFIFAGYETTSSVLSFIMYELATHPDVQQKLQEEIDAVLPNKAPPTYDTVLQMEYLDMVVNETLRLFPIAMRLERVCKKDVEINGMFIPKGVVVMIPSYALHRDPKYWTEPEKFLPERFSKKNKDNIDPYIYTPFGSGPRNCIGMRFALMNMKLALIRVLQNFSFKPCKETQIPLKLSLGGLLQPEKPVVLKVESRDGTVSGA
Cytochrome P450 2C9, sequence (P11712 whole entry): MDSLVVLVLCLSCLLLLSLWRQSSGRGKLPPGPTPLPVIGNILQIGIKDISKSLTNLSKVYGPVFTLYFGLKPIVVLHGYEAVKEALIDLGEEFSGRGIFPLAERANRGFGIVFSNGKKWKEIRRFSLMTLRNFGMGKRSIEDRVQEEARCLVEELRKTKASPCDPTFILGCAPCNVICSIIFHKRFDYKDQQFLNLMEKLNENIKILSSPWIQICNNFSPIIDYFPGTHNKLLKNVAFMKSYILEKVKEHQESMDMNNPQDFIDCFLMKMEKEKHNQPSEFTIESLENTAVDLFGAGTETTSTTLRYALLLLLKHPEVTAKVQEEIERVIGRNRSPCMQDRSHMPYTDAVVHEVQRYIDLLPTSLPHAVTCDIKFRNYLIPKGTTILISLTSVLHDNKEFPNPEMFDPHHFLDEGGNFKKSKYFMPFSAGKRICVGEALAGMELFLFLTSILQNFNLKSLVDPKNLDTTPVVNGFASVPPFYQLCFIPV
Cytochrome P450 2D6, sequence (P10635 whole entry): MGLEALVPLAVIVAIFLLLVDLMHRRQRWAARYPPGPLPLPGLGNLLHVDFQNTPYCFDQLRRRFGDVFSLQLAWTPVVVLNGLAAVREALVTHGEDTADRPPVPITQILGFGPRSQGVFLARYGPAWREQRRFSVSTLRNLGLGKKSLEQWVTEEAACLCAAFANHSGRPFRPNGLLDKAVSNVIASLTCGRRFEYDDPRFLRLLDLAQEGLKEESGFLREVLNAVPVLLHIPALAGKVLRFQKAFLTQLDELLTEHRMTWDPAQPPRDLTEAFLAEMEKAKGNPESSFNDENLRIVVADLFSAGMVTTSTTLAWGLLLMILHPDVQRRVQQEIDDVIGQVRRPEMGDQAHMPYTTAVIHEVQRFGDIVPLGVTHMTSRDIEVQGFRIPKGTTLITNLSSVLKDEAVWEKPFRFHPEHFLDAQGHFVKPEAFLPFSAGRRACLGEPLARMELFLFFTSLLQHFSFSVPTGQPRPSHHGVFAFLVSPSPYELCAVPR
Cytochrome P450 2C19, sequence (P33261 whole entry): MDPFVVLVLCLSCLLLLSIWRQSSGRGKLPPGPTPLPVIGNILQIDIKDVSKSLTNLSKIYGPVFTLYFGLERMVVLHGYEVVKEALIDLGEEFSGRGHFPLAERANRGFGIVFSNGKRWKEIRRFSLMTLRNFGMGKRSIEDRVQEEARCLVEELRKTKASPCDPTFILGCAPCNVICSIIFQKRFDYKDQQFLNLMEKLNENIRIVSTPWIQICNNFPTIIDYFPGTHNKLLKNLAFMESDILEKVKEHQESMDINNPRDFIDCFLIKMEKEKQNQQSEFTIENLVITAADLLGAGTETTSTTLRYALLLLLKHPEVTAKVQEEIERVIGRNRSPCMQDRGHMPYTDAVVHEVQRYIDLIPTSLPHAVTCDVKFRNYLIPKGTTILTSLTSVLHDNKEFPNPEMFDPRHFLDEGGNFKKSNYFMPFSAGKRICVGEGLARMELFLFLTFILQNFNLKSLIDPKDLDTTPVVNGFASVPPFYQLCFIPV

Structure (SMILES)	solubility kinetic [1] [µM]	Stability [2]	Emax [3] [%]	EC50 [4] [µM]	Ratio [5]	Papp A→B at 2 h [6] [×10⁻⁶ cm/s]	microsomal CLint at 1 µM [7] [µL/min/mg]	microsomal CLint at 1 µM [8] [µL/min/mg]	also measured
CCNc1cn(C)nc1C(=O)N1N=C2CCCC[C@@H]2[C@@]1(O)C(F)(F)F (racemic)	182 (≈ 65.4 µg/mL)	Stable	37	19.9					
O=C(c1ccncc1)N1N=C2CCCCC[C@@H]2[C@@]1(O)C(F)(F)F (racemic)	96 (≈ 31.4 µg/mL)	Stable	34	10.8	1	36.2	170	71.9	
Cc1cccc(C(=O)N2N=C3CCCC[C@@H]3[C@@]2(O)C(F)(F)F)c1O (racemic)	101 (≈ 34.6 µg/mL)	Stable	32	5.2	0.8	31.6	> 700	352	
CCOC(=O)c1c[nH]nc1S(=O)(=O)N1N=C2CCCC[C@@H]2[C@@]1(O)C(F)(F)F (racemic)	111 (≈ 45.6 µg/mL)	Stable	34	1.8					
Cn1cc(N)c(C(=O)N2N=C3CCCC[C@@H]3[C@@]2(O)C(F)(F)F)n1 (racemic)	205 (≈ 67.9 µg/mL)	Stable	30	6.6	1.6	17.2	22.9	< 5	
Cc1nn(C)c(Cl)c1S(=O)(=O)N1N=C2CCOC[C@@H]2[C@@]1(O)C(F)(F)F (racemic)		Stable	-17	30					
Cn1cc(Br)c(C(=O)N2N=C3CCCC[C@@H]3[C@@]2(O)C(F)(F)F)n1 (racemic)	114 (≈ 45.1 µg/mL)	Stable	29	4.9	1	39.3	101	17.7	Activity [9]: Non-toxic; inhibition [10]: Active; inhibition [11]: Active
Cc1ccc(C(=O)N2N=C3CCCC[C@@H]3[C@@]2(O)C(F)(F)F)cn1 (racemic)	212 (≈ 69.4 µg/mL)	Stable	43	3.7	1.5	43.4	174	19.2	
Nc1nc(C(=O)N2N=C3CCCC[C@@H]3[C@@]2(O)C(F)(F)F)cs1 (racemic)	96 (≈ 32.1 µg/mL)	Stable	44	1.8	1.1	31	27.6	13.6	Activity [12]: Active; Activity [13]: Active; Activity [14]: Active; Activity [15]: Non-toxic; Activity [16]: Non-toxic; Activity [17]: Non-toxic; Activity [18]: Active; INH [19]: > 30 µM; INH [20]: 24.4 µM; INH [21]: > 30 µM; INH [22]: > 30 µM; INH [23]: > 30 µM; inhibition (INH) [24]: Not Active; INH [25]: > 30 µM; Activity [9]: Non-toxic; Kp [26]: 0.34; Activity [27]: Non-toxic; inhibition [10]: Active; inhibition [11]: Active; inhibition [28]: Active
O=C(c1cccnc1)N1N=C2CCOC[C@@H]2[C@@]1(O)C(F)(F)F (racemic)	187 (≈ 59 µg/mL)	Stable	40	6.1	1.1	29.2	16.6	15.7	
Nc1nc(C(=O)N2N=C3CCCC[C@@H]3[C@@]2(O)C(F)(F)F)co1 (racemic)	153 (≈ 48.7 µg/mL)	Stable	21	17.1	1.1	29.1	21.1	6.1	
O=C(c1ccncc1)N1N=C2CCCC[C@@H]2[C@@]1(O)C(F)(F)F (racemic)	98 (≈ 30.7 µg/mL)	Stable	42	9.1	1.1	36	54.6	21.4	Activity [9]: Non-toxic; inhibition [10]: Active; inhibition [11]: Active
O=C(c1cncc(Br)c1)N1N=C2CCOC[C@@H]2[C@@]1(O)C(F)(F)F (racemic)	111 (≈ 43.8 µg/mL)	Stable	24	22.4					
Cc1ccc(C(=O)N2N=C3CCCCC[C@@H]3[C@@]2(O)C(F)(F)F)cn1 (racemic)	56 (≈ 19.1 µg/mL)	Stable	30	10					
O=C(c1ccc[nH]1)N1N=C2CCCC[C@@H]2[C@@]1(O)C(F)(F)F (racemic)	72 (≈ 21.7 µg/mL)	Stable	20	28.7					
Cn1cnc(S(=O)(=O)N2N=C3CCCC[C@@H]3[C@@]2(O)C(F)(F)F)c1 (racemic)	156 (≈ 55 µg/mL)	Stable	41	1.7	0.9	12.8	28.3	37.6	Activity [9]: Non-toxic; inhibition [10]: Active; inhibition [11]: Active
CC1=NN(C(=O)c2cccc(C)c2O)C(O)(C(F)(F)F)C1C (centres undefined)	5 (≈ 1.58 µg/mL)			> 50					inhibition [29]: inactive
O=C(c1ccc[nH]1)N1N=C2CCCCC[C@@H]2[C@@]1(O)C(F)(F)F (racemic)	30 (≈ 9.46 µg/mL)	Stable	6	14.2					
